Source: ChEMBL document CHEMBL2169885, “Synthesis and biological evaluation of optically active Ki16425” (Bioorg Med Chem Lett, 2012)
The source made the active and inactive calls. No cut-off for these calls is given here.

Tests used:
[1] = biological target: Lysophosphatidic acid receptor 2 (Homo sapiens) (UniProt Q9HBW0); assay: Antagonist activity at human LPA2 receptor expressed in HEK293 cells assessed as inhibition of LPA-induced AP-TGF-alpha release treated 5 mins before LPA addition measured after 60 mins; assay type: functional, cell-based
PC-3 = assay: Antagonist activity at LPA receptor in human PC3 cells assessed as inhibition of LPA-induced cell migration; assay type: functional, cell-based

Lysophosphatidic acid receptor 2 (Homo sapiens), sequence (Q9HBW0 whole entry): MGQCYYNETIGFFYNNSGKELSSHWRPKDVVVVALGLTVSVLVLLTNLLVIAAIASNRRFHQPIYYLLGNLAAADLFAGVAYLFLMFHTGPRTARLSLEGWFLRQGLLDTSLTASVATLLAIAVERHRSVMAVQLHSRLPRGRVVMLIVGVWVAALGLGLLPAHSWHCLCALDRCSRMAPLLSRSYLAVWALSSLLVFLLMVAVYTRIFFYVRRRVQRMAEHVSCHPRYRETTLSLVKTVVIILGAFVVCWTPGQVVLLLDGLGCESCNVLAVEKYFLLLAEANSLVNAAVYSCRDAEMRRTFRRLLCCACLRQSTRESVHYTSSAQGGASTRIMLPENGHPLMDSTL

Structure (SMILES) | inhibition [1] | inhibition (PC-3)
Cc1noc(-c2ccc(CSCCC(=O)O)cc2)c1NC(=O)OC(C)c1ccccc1Cl (racemic) | Active | Active
Cc1noc(-c2ccc(CSCCC(=O)O)cc2)c1NC(=O)O[C@H](C)c1ccccc1Cl | Active | Active
Cc1noc(-c2ccc(CSCCC(=O)O)cc2)c1NC(=O)O[C@@H](C)c1ccccc1Cl | Active | Active
